# Measurements published in US7943176B2, “Oral dosage form for propiverine or its pharmaceutically acceptable salts with an extended release of the active ingredient” (Apogepha Arzneimittel GmbH, priority 2001, dated 2011).
# Values joined by “and” are separate entries in the source; they are usually repeats but may differ in a detail not shown here. Equal entries are not always repeated. Structures can show the parent of a compound that is named as a salt. Where two headings read alike, the source gives them in different places.
# Legend:
# [1] = water, pH=4.0-8.0; cited from earlier work
# [2] = water, 25° C.; cited from earlier work
# [3] = Distribution coefficient of propiverine-hydrochloride (1-octanol/water, 25° C.); assay type: physicochemical
# Protocol: (§1) The distribution coefficient and the solubility of propiverine-hydrochloride in dependence of the pH value are known (determination of the amount of propiverine in the aqueous phase via HPLC).
# Distribution coefficient of propiverine-hydrochloride (1-octanol/water, 25° C.)
# [4] = Solubility of propiverine-hydrochloride in water; assay type: physicochemical; conditions: aqueous buffer
# Text: as §1
# Solubility of propiverine-hydrochloride in water
compound,measurement,setting,value
"CCCOC(C(=O)OC1CC[N+](C)([O-])CC1)(c1ccccc1)c1ccccc1 (stereo not shown) [Propiverine-N-oxide, propiverine-N-oxide]",solubility,[1],> 127 mg/mL and > 99 mg/mL
"CCCOC(C(=O)OC1CCN(C)CC1)(c1ccccc1)c1ccccc1 [propiverine, 2,2-diphenyl-2-(1-propoxy)acetic acid(1-methyl-piperid-4-yl)ester]",pKa value,[2],7.35±0.1
CCCOC(C(=O)OC1CCN(C)CC1)(c1ccccc1)c1ccccc1 [propiverine-hydrochloride],Log [K],[3]; pH 1.0,1.3
same,K (distribution coefficient),"[3]; pH 1.0, mean of three",22
same,Log [K],[3]; pH 5.0,1.1
same,K (distribution coefficient),"[3]; pH 5.0, mean of three",13
same,Log [K],[3]; pH 6.0,2.4
same,K (distribution coefficient),"[3]; pH 6.0, mean of three",227
same,Log [K],[3]; pH 6.5,2.9
same,K (distribution coefficient),"[3]; pH 6.5, mean of three",884
same,Log [K],[3]; pH 6.8,3.8
same,K (distribution coefficient),"[3]; pH 6.8, mean of three",6904
same,Log [K],[3]; pH 7.0,4.0
same,K (distribution coefficient),"[3]; pH 7.0, mean of three",10346
same,Log [K],[3]; pH 7.2,4.2
same,K (distribution coefficient),"[3]; pH 7.2, mean of three",15438
same,Log [K],[3]; pH 7.5,4.4
same,K (distribution coefficient),"[3]; pH 7.5, mean of three",26068
same,Log [K],[3]; pH 8.0,4.7
same,K (distribution coefficient),"[3]; pH 8.0, mean of three",52372
same,solubility,"[4]; pH 5.8, 24 ° C.",> 200 mg/mL
same,solubility,"[4]; pH 5.8, 37 ° C.",368 mg/mL
same,solubility,"[4]; pH 6.0, 24 ° C.",209 mg/mL
same,solubility,"[4]; pH 7.0, 24 ° C.",1.2 mg/mL
same,solubility,"[4]; pH 7.2, 24 ° C.",1.1 mg/mL
